Drawing on the METLIN SMRT retention time set (Domingo-Almenara et al. 2019), this text covers RP-LC retention time for 78 compounds.

The series in a line: gradient 5% acetonitrile 3 min, to 50% in 2 min, to 85% in 15 min, held 3 min, 100 µL/min. The settings on record: column: Zorbax Extend-C18 2.1 x 50 mm; eluents: water / acetonitrile, 0.1% formic acid. The essentials: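 Pure standards were run in mixtures of ~100 molecules by HPLC coupled to a quadrupole time-of-flight mass spectrometer. The column was a Zorbax Extend-C18 (2.1 × 50 mm, 1.8 μm) at 100 μL/min, with water and acetonitrile each containing 0.1% formic acid, in positive and negative ionization mode. Dead and dwell volumes were 40 μL and 900 μL. Retention time was taken from computationally picked adduct peaks, each manually inspected, with data collected over 3 months.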
`CCOc1ccc(-c2noc(Cn3ccn4nc(-c5ccc(F)cc5)cc4c3=O)n2)cc1OC` showed an RP-LC retention time of 819 s.

With `COc1ccccc1NC(=O)Cn1cc(C(=O)N2CCCC2)c(=O)c2ccc(C)nc21`, the RP-LC retention time was 705 s.

`CSc1ccc(-c2noc(Cn3ncn4nc(-c5ccccc5Cl)cc4c3=O)n2)cc1`: the RP-LC retention time was found to be 1200 s.

`CCc1nn2c(CNS(=O)(=O)c3cc(C)cc(C)c3)c(-c3ccccc3)nc2s1` came in with an RP-LC retention time of 941 s.

`COc1cccc(NC(=O)NC2CCN(c3ccc(C)c(C)c3)C2=O)c1` (stereo not drawn) had an RP-LC retention time of 854 s.

On to `COC1CCC12CCN(C(=O)C1CCCCC1)CC2` (stereo not drawn), for which the RP-LC retention time worked out at 903 s.

As to `CCOC(=O)CNC(=O)Nc1ccccc1-c1cc2ccccc2[nH]1`, the RP-LC retention time was determined as 866 s.

Consider `O=C(NCC1COc2ccccc2O1)c1cc(-c2cccnc2)nc2ccccc12` (stereo not drawn), for which the RP-LC retention time was determined as 760 s.

In turn, `COc1ccccc1NC(=O)C(=O)c1ccc[nH]1` returned an RP-LC retention time of 908 s.

`Cc1ccc(N2C(=O)N(CC(=O)N3CCCCC3C)C3CS(=O)(=O)CC32)cc1Cl` (stereo not drawn) registered an RP-LC retention time of 851 s.

Compound `Cc1cc(C)c2[nH]c3c(c(=O)c2c1)CN(CC(=O)Nc1ccc2c(c1)OCCO2)CC3` came in with an RP-LC retention time of 604 s.

Take `COc1cc(/C=C2/C(=O)N(c3ccccc3)N=C2C)ccc1OCC(=O)Nc1ccccc1`: the RP-LC retention time was found to be 1080 s.

For `C[C@H](NC(=O)Cc1cc(F)cc(F)c1)C(=O)N[C@H]1N=C(c2ccccc2)c2ccccc2N(C)C1=O`, the RP-LC retention time is 853 s.

The compound `CS(=O)(=O)N(Cc1ccncc1)C1CN(C(=O)C2(c3ccccc3)CC2)C1` had an RP-LC retention time of 610 s.

The compound `CCCCC(=O)Nc1ccc2nc(N3CCN(CC)CC3)cc(C)c2c1` came in with an RP-LC retention time of 579 s.

On to `Cc1csc(-c2ccc(N3CCN(C(=O)COc4ccc(F)cc4)CC3)nc2)n1`, for which the RP-LC retention time is 856 s.

The compound `O=C([C@@H]1C[C@H](F)CN1S(=O)(=O)Cc1cccc(Cl)c1)N1CCc2ccccc2C1` had an RP-LC retention time of 1000 s.

In turn, `O=C(CN1C(=O)CCC1=O)N1CC(c2nc(-c3cnccn3)no2)C1` displayed an RP-LC retention time of 574 s.

Compound `CCC(C)(C)OCC(O)CNCC(C)C` (stereo not drawn) had an RP-LC retention time of 579 s.

As to `Cc1ccc(NC(=O)N2CCC(CN3CCCC(C)C3)CC2)cc1C` (stereo not drawn), the RP-LC retention time turned out to be 645 s.

Consider `CC(C)n1cnc(S(=O)(=O)N2CCC(C(=O)Nc3cccc(C(F)(F)F)c3)CC2)c1`, for which the RP-LC retention time was 862 s.

`COc1ccccc1-n1nnc(C(=O)OCc2nc(-c3cccc(Cl)c3)oc2C)c1C` showed an RP-LC retention time of 1160 s.

With `Cc1cc(C)n(CCNC(=O)CN2CCN(c3ccc4c(c3)OCCO4)C2=O)n1`, the RP-LC retention time was determined as 616 s.

Compound `Cc1occc1C(=O)NC1CCc2nn(C)c(=O)n2CC1` (stereo not drawn) showed an RP-LC retention time of 604 s.

`COc1cccc(-c2nc(-c3cccc(-c4ccnn4C)c3)no2)c1` showed an RP-LC retention time of 1120 s.

`CCn1c(=O)c2ccccc2n(Cc2nc(-c3ccccc3Br)no2)c1=O` showed an RP-LC retention time of 1020 s.

The compound `O=c1n(CCc2ccccc2)nc2c(S(=O)(=O)N3CCN(c4ccc(F)cc4)CC3)cccn12` registered an RP-LC retention time of 989 s.

Turning to `COc1ccc(-c2nnc(-c3ccccc3Cl)o2)cc1S(=O)(=O)N1CCC(C)CC1`, the RP-LC retention time came to 1150 s.

`Cc1nn(-c2ccc(N3CCCCC3)nn2)c(C)c1CCC(=O)N1CCN(c2ncccn2)CC1` returned an RP-LC retention time of 656 s.

In turn, `COc1ccccc1-c1noc(C2CCCN2C(=O)c2sc(C)nc2C)n1` (stereo not drawn) gave an RP-LC retention time of 750 s.

The compound `COC(=O)c1ncn2c1C(=O)N(c1cc(C)cc(C)c1)C(C)(C(=O)NCc1ccccc1)C2` (stereo not drawn) returned an RP-LC retention time of 747 s.

`CC(=O)N1CCc2cc(N3CC(C(=O)NCc4cc(F)cc(F)c4)CC3=O)ccc21` (stereo not drawn) displayed an RP-LC retention time of 690 s.

Take `CCc1nnc2sc(-c3cc(C)nc4ccc(Br)cc34)nn12`: the RP-LC retention time is 892 s.

Regarding `Cn1cc(-c2ccncc2)cc1C(=O)NCc1cccc(Br)c1`, the RP-LC retention time came out at 672 s.

In turn, `Cc1cc2c(c(=O)n(-c3ccccc3)c(=O)n2CC(=O)Nc2cccc(C#N)c2)n1C` yielded an RP-LC retention time of 784 s.

On to `Cc1ccc(Sc2nccnc2N2CCCC(C(=O)N3CCN(c4cccc(C)c4)CC3)C2)cc1` (stereo not drawn), for which the RP-LC retention time was 1310 s.

As to `CCn1cc(-c2nc(C)c(C(=O)NCc3ccc(F)cc3F)s2)c2cccnc21`, the RP-LC retention time stood at 969 s.

With `O=c1n(Cc2c(F)cccc2Cl)nc2ccc(S(=O)(=O)N3CCCC3)cn12`, the RP-LC retention time amounted to 885 s.

As to `COc1cccc2cc(C(=O)NCCn3nc(C)cc3C)oc12`, the RP-LC retention time turned out to be 674 s.

`COc1ccc(/C=C/c2nc(C#N)c(NCCCN(C)C)o2)cc1OC` gave an RP-LC retention time of 629 s.

As to `O=C(Nc1cccnc1)C1(CCO)CCN(c2ncccn2)C1` (stereo not drawn), the RP-LC retention time came out at 529 s.

Compound `Cc1noc2ncnc(N3CCCC(C(=O)N4CCN(c5ccc(F)cc5)CC4)C3)c12` (stereo not drawn) yielded an RP-LC retention time of 846 s.

Take `CCNc1nc(C)cc(N2CCN(S(=O)(=O)c3cc(C(C)C)ccc3C)CC2)n1`: the RP-LC retention time stood at 838 s.

Compound `O=c1n(CC2CC2)nc2n1CCN(Cc1cccc(O)c1)C2` displayed an RP-LC retention time of 610 s.

Compound `Cc1cc(C(=O)NCC2CCN(C(=O)NC(C)(C)C)CC2)c(C)o1` yielded an RP-LC retention time of 699 s.

In turn, `COc1ccccc1-c1noc(C2CCCN2C(=O)c2ccoc2)n1` (stereo not drawn) had an RP-LC retention time of 763 s.

`COCCN1[C@@H]2CCN(C(=O)Nc3ccccc3F)C[C@@]2(C(=O)N2CCOCC2)CCS1(=O)=O`: the RP-LC retention time worked out at 676 s.

The compound `O=C(CCSc1ccccc1)Nc1cccc2ccc(-n3ccnc3)nc12` registered an RP-LC retention time of 648 s.

The compound `O=C(Nc1ccc(F)c(Cl)c1)Nc1nccn(-c2ccc(F)cc2)c1=O` showed an RP-LC retention time of 1010 s.

Consider `Cc1cccc(-n2ncc3c(N4CCN(CCO)CC4)ncnc32)c1`, for which the RP-LC retention time is 622 s.

With `CCOc1ccccc1NC(=O)N1CCc2nc(-c3ccc(OC)cc3)ncc2C1`, the RP-LC retention time stood at 1000 s.

`CC(C)(C)NC(=O)c1csc(-c2ccc(N3CCCC3)nc2)n1` came in with an RP-LC retention time of 670 s.

Compound `CCC(C)NS(=O)(=O)c1ccc(-c2c(C)noc2C)cc1` (stereo not drawn) yielded an RP-LC retention time of 936 s.

In turn, `Cc1[nH]c(C(=O)N2CCCC(C(=O)NCCCN3CCOCC3)C2)c(C)c1C` (stereo not drawn) showed an RP-LC retention time of 597 s.

The compound `Cc1ccccc1NC(=O)Cn1c(=O)n(-c2ccccc2)c(=O)c2c1cc(C)n2C` showed an RP-LC retention time of 806 s.

`COc1cccc(Oc2nccnc2N2CCC(C(=O)NCCC(C)C)CC2)c1` gave an RP-LC retention time of 861 s.

Compound `CC1CCN(C(=O)C2CCN(S(=O)(=O)c3cc(C(=O)N4CCCC4)n(C)c3)CC2)CC1` showed an RP-LC retention time of 750 s.

The compound `O=C(NCCSCc1ccco1)c1cc(-c2ccccn2)nc2ccccc12` had an RP-LC retention time of 885 s.

For `Cc1nc(-c2noc(-c3ccccc3)n2)cn1CC(=O)NCc1ccccc1`, the RP-LC retention time turned out to be 810 s.

With `COc1ccc(N2CCN(c3ccc4cc(S(=O)(=O)N5CCC(C)CC5)ccc4n3)CC2)cc1`, the RP-LC retention time is 1060 s.

`CCCn1c(=O)sc2cc(S(=O)(=O)N3CCC(C(=O)N4CCc5ccccc54)CC3)ccc21` returned an RP-LC retention time of 1020 s.

With `CC(C)c1nnc2n1CCN(C(=O)COc1ccc(Cl)cc1)C2`, the RP-LC retention time is 692 s.

Regarding `Cc1ccc(-c2[nH]ncc2CN2C[C@@H](CO)[C@H](c3ccncc3)C2)cc1`, the RP-LC retention time was 604 s.

As to `CSc1ccccc1NC(=O)c1c(C)sc2ncnc(N3CCCC(C)C3)c12` (stereo not drawn), the RP-LC retention time amounted to 1210 s.

For the compound `CCc1nc(OCC(=O)Nc2ccc(Br)cc2F)c2ccccc2n1`, the RP-LC retention time was found to be 910 s.

The compound `CC(C)Cc1ccc(S(=O)(=O)N2C[C@@H](F)C[C@H]2C(=O)N2CCc3ccccc3C2)cc1` displayed an RP-LC retention time of 1120 s.

In turn, `COC(=O)c1sccc1NC(=O)Cn1c(C)cc(C)c(-c2nc(-c3cccc(Cl)c3)no2)c1=O` came in with an RP-LC retention time of 1170 s.

With `CCC1(O)C(=O)OCc2c1cc1n(c2=O)Cc2cc3c(N)cccc3nc2-1` (stereo not drawn), the RP-LC retention time was determined as 632 s.

As to `O=C(Cn1c(=O)oc2ccccc21)Nc1nc(-c2ccccc2)cs1`, the RP-LC retention time amounted to 912 s.

For `O=C(NCCN1CCOCC1)c1cc2sccc2n1Cc1ccc(Cl)cc1`, the RP-LC retention time stood at 713 s.

On to `O=C(NCCCN1CCOCC1)c1ccc2ccnc(N3CCN(c4ccccc4F)CC3)c2c1`, for which the RP-LC retention time amounted to 595 s.

`CCCCCOc1ccc(C(=O)CCNC(Cc2c[nH]c3ccccc23)C(=O)O)cc1` (stereo not drawn): the RP-LC retention time turned out to be 787 s.

In the case of `COc1ccc(-c2nnc(-c3ccc(C)c(S(=O)(=O)N4CCCC4)c3)o2)cc1OC`, the RP-LC retention time amounted to 937 s.

`Cc1ccccc1CNC(=O)C1=C2CCCN2c2ccc(F)cc2S1(=O)=O` displayed an RP-LC retention time of 918 s.

In the case of `CC(C)OCCCNC(=O)C1CCCN(c2ccc(-c3ccccc3)nn2)C1` (stereo not drawn), the RP-LC retention time came to 683 s.

Take `CCOCCCNC(=O)Cn1ncc2c(N3CCN(c4ccccn4)CC3)ncnc21`: the RP-LC retention time was determined as 565 s.

As to `Cc1cccc(NC(=O)CN2C(=O)CCCc3cc(S(=O)(=O)N4CCC(C)CC4)ccc32)c1`, the RP-LC retention time was determined as 1010 s.

In the case of `Cc1nc2cc(-c3noc(-c4ncoc4-c4ccccc4)n3)ccc2o1`, the RP-LC retention time was 1020 s.
